Data from patent publication US11420922B2, “Hydroxylated tropolone inhibitors of nucleotidyl transferases in herpesvirus and Hepatitis B and uses therefor” (Saint Louis University, priority 2015, dated 2022).
“Also recorded” adds a separate entry of the source. Like-named read-outs stand apart in the source and are kept apart here.

Columns and labels:
[1] = tested on: HSV-2; assay: Anti-HSV-2 replication assay in Vero cells, titers by plaque assay; type: cell-based, herpes simplex virus 2; conditions: for log reduction at 5 µM / log reduction at 50 µM / EC50: Human alphaherpesvirus 2, Vero, 24 h; for log reduction at 5 µM: read-out: HSV-2 Log suppression 5 μM; for log reduction at 50 µM: read-out: HSV-2 Log suppression 50 μM; for inhibition of wild-type HSV-2, in words: laboratory strain, 24 hr, FIG. 4; for EC50: read-out: HSV-2 EC50
[2] = tested on: TK-deficient mutant of HSV-2 strain 333, ΔTK-; assay: Replication of acyclovir-resistant TK-deficient HSV-2 mutant in Vero cells; type: cell-based, herpes simplex virus 2; conditions: 5 μM, 24 hr, FIG. 4
Protocol: FIGS. 4A & 4B. Sensitivity of thymidine kinase-deficient HSV-2 to αHT compounds. […] Duplicate cultures were collected 24 hours post-infection and infectious virus titers were determined by plaque assay. Titers in compound-treated samples were subtracted from DMSO-treated samples. Values are the averages±one standard error of the mean. α-Hydroxytropolones inhibit an ACV-resistant mutant of HSV-2. […] Log10 suppression was determined relative to the diluent control. Data are the averages of data from duplicate samples±ranges from one of two independent experiments at each concentration.
(§1) Vero cells were maintained in Dulbecco's modified Eagle's medium (DMEM) containing 3% newborn calf serum, 3% bovine growth serum, 2 mM L-glutamine and 100 IU/mL penicillin and 0.1 mg/mL streptomycin (P/S). HSV-1 #6 and HSV-2 #1 are de-identified clinical isolates from the Saint Louis University Hospital. Stocks were prepared after a single passage in cell culture and were titered by standard plaque assay (Knipe and Spang, 1982). Wild-type HSV-2 used in FIG. 3 was laboratory strain 333. The TK-deficient mutant of HSV-2 strain 333, ΔTK-, contains a 180-bp KpnI-KpnI deletion in the UL23 open reading frame that abrogates TK activity (McDermott, et al, 1984). ΔTK- was the generous gift of Jim Smiley. Virus stocks were grown and titered on Vero cells (Morrison and Knipe, 1996).
HSV TK-deficient mutants are therefore insensitive to ACV. […] Vero cells were infected with a laboratory strain of HSV-2 and an engineered TK-deficient mutant of the same strain.

[3] = Quantitative Vero cell toxicity (MTT); type: cell-based; conditions: African green monkey, Vero cells
Protocol: (§2) Qualitative assessments of cytotoxicity were done visually by inspecting the cells in the primary screening assays. For the quantitative assays, cells were plated in 96-well plates at 1.0×10^4 per well. The next day the compounds were added at 0.78 to 100 μM in a final concentration of 1% (v/v) DMSO, and the cells were incubated for 24 hours under conditions identical to those employed for the viral replication inhibition assays. Mitochondrial toxicity was measured by incubating the cells with 0.25 mg/mL thiazolyl blue tetrazolium bromide (MTT, Sigma Aldrich Chemical Co.), the cultures were incubated for 60 min, metabolites were solubilized in acidic isopropanol, and absorbance was read at 570 nm. CC50 values were calculated by non-linear curve fitting using GraphPad Prism.
Quantitative toxicity measurements were conducted for all compounds that suppressed HSV replication by >2 log10 at 5 μM plus a number of compounds with lesser inhibitory activity for comparison. Toxicity was assessed by […]. Cells were plated in 96-well plates at 1.0×10^4 per well. The next day compound was added in concentrations ranging from 0.78 to 100 μM in a final concentration of 1% (v/v) DMSO. The cells were incubated for 24 h under conditions identical to those employed for the viral replication inhibition assays, and then mitochondrial activity was measured with the MTT assay (Sigma Aldrich) according to the manufacturer's instructions. Percent viability was determined for each compound concentration from the […], and then 50% cytotoxic concentrations (CC50) values were calculated by non-linear curve fitting using GraphPad Prism. Consistent with the subjective assessments of toxicity, all compounds selected for quantitative toxicity assessment had CC50 values≥50 μM under these conditions (Table 1).

[4] = tested on: HSV-1; assay: Anti-HSV-1 replication assay in Vero cells, titers by plaque assay; type: cell-based, herpes simplex virus 1; conditions: Human alphaherpesvirus 1, Vero; for log reduction at 5 µM / log reduction at 50 µM / EC50: 24 h; for log reduction at 5 µM: read-out: HSV-1 Log suppression 5 μM; for log reduction at 50 µM: read-out: HSV-1 Log suppression 50 μM; for EC50: read-out: HSV-1 EC50
Protocol: as §1, with “The TK-deficient mutant of HSV-2 strain 333, ΔTK-, contains a 180-bp KpnI-KpnI deletion in the UL23 open reading frame that abrogates TK activity (McDermott, et al, 1984). ΔTK- was the generous gift of Jim Smiley.” left out
(§3) Compounds to be screened were diluted in PBS supplemented to contain 2% newborn calf serum and 1% glutamine, and added in 100 μL volume to confluent cell monolayers in 24-well cluster plates. Immediately thereafter HSV-1 and HSV-2, diluted in the supplemented PBS medium, were added to the wells in 50 μl volume such that the final concentration of compound was 50 μM and 5 μM and the multiplicity of infection was 0.1. The plates were incubated at 37° C. for 1 hour and then virus-containing inoculum was removed and the wells were washed once in PBS. Compounds, diluted to 50 μM and 5 μM in DMEM supplemented to contain 2% newborn calf serum and 1% each penicillin/streptomycin, were added at 0.5 mL/well. Plates were incubated at 37° C. an additional 23 hr, and then the plates were visually inspected through a phase contrast microscope for cytopathic effect, and for toxic effect. […] The entire contents of each well were collected by scraping. Samples were frozen at −80° C., and then subsequently thawed, sonicated, and infectious virus titer was determined by standard plaque assay on Vero cell monolayers. Because the compounds were dissolved at 10 mM in 100% DMSO, equivalent dilutions of DMSO were added to additional wells as a control for effects of the diluent. Each experiment was repeated once. EC50 values were determined as above except that serial dilutions of the compound to be tested were prepared starting at 50 μM. The inhibitory values were calculated by non-linear curve-fitting in GraphPad Prism.

[5] = tested on: patient-derived RNAseH enzymes (genotypes B, C and D); assay: Biochemical RNAseH assay with patient-derived variant enzymes; set-up: species or system Hepatitis B virus
Source text: Four variant patient-derived RNAseH enzymes were expressed as recombinant enzymes, purified, and tested in an RNAseH assay with compounds #1 (FIG. 7A) and #46 (FIG. 7B) at their respective IC50s.
HBV has at least 8 genotypes differing in sequence by 8%. Genetic diversity in the RNAseH domain is about 6%, which is easily high enough to modulate viral sensitivity to RNAseH inhibitors. Therefore, the inventors tested the RNAseH inhibitors #1 [2-hydroxyisoquinoline-1,3(2H,4H)-dione], an HID, and #46 (β-thujaplicinol), an α-hydroxytropolone, for the ability to inhibit variant RNAseHs. Twelve purified, patient-derived RNAseH enzymes (4 from each genotypes B, C and D) were tested with the compounds at their respective IC50 values in a biochemical RNAseH assay. […] Therefore, HBV's high genetic variation is unlikely to present a substantial barrier to drug development.

[6] = tested on: HBV replication; assay: Chou-Talalay combination of RNAseH inhibitors with Lamivudine against HBV replication; type: cell-based, Hepatitis B virus; conditions: CI <1.0 synergy, ~1.0 additive, >1.0 antagonism
Source text: Additive interactions are shown with the red line, synergistic interactions below the line, and antagonistic interactions are above the line.
Current nucleos(t)ide analog therapy for HBV has converted hepatitis type B from an implacably progressing illness to a controllable disease. However, patients are only very rarely cured, in part due to the incomplete inhibition of HBV replication. The inventors hypothesized that the novel RNaseH inhibitors would work synergistically with the existing nucleos(t)ide analogs because the two classes of drugs target physically distinct active sites on the viral polymerase protein. […] RNAseH inhibitors from two different chemical classes were employed, compound #1 [2-hydroxyisoquinoline-1,3(2H,4H)-dione], an HID, and #46 (β-thujaplicinol), an α-hydroxytropolone, were tested. Chou-Talaly analysis yields a combination index (CI). CI values<1.0 indicate synergy, CIs of approximately 1.0 indicate additive interactions, and CI values>1.0 indicate antagonism. CI values are calculated at various efficacy levels (EC50, EC75, EC90, and EC95), and a weighted CI value favoring higher efficacy levels is also generated. FIGS. 6A & 6B show the results of four experiments employing compound #1 and three with compound #46. […] Therefore, RNAseH inhibitors act strongly synergistically with an approved nucleos(t)ide analog drug against HBV.

[7] = Mouse liver microsome assay; type: in vitro ADME; conditions: 1 μM in mouse liver microsomes
Protocol: Microsomal incubations are run at a final P450 concentration of 0.25 μM. The microsomal mixture is composed of 0.1M potassium phosphate containing 3.3 mM MgCl and 1 μM compound (final concentration). The mixture is prewarmed for 5 min at 37° C. To initiate the reaction a 12 mM stock of NAPDH (1.2 mM, final concentration) is added to the warmed microsomal mixture and aliquots are removed at 0, 5, 10, 20 and 30 min. Samples are quenched with ice cold acetonitrile containing internal standard and either 1.8 mM EDTA or EGTA (final concentration). Samples are vortexed and spun down at 3200 rpm for 5 min. The supernant is transferred to 96-deep well plates and run on LC/MS/MS.

[8] = tested on: HSV; assay: Anti-HSV SAR summary, HSV type not separated; type: cell-based, herpes simplex virus; conditions: grouped by activity at 50, 5 and 0.5 μM
Protocol: as §3
A series of over 20 synthetic αHTs were synthesized and tested to both confirm the initial SAR, and to provide leads for further optimization pursuits (FIG. 5). […] Specifically, biphenyl-containing molecules #118 and 115 inhibit HSV replication by up to 4 log10 at 200 nM. The increased potency over close analogs #111 and 113 confirmed the importance of added lipophilicity.

[9] = Cytotoxicity reported with the HBV assay (Table 4); type: cell-based; conditions: human, hepatoma cells; read-out: CC50 (HBV assay table)
Protocol: as §2

[10] = tested on: HBV; assay: HBV replication assay in HepDES19 cells; type: cell-based; conditions: Hepatitis B virus; HepDES19 cells; read-out: EC50 (HBV assay)
Protocol: HBV replication assay. Inhibition of HBV replication was measured in HepDES19 cells as previously described (Cai, et al., 2014). Cells were seeded into 6-well plates and incubated in DMEM/F12, 10% fetal bovine serum (FBS), 1% penicillin/streptomycin (P/S) with 1 μg/ml tetracycline. Tetracycline was withdrawn after 24 hours. The test compound was applied to duplicate wells 48 hours later in medium containing a final DMSO concentration of 1%, and medium containing the compound was refreshed daily for the following two days. Cells were harvested and non-encapsidated nucleic acids were digested with micrococcal nuclease (New England Biolabs). HBV DNA was purified from capsids using QIAamp Cador Pathogen Mini Kit (Qiagen) with proteinase K incubation overnight at 37° C. TaqMan PCR was performed for 40 cycles at an annealing temperature of 60° C. Primers and probe (IDT Inc.) for the plus-polarity strand were: 5′[…]3′ (SEQ ID NO: 1); 5′[…]3′ (SEQ ID NO: 2); 5′/56-FAM/[…]/ZEN/[…]/3IABkFQ (SEQ ID NO: 3). Primers and probe for the minus-polarity strand were: 5′[…]3′ (SEQ ID NO: 4); 5′[…]3′ (SEQ ID NO: 5); 5′/56-FAM/[…]/ZEN/[…]/3IABkFQ (SEQ ID NO: 6).

[11] = 5 μM, moi 0.1, 24 h, vs DMSO, +/− are qualitative, key not given
[12] = 50 μM, moi 0.1, 24 h, vs DMSO, +/−/T are qualitative, key not given

| SMILES | inhibition of the TK-mutant strain, in words [2] | CC50 at 24 h [3] [nM] | inhibition of wild-type HSV-2, in words ([1]; 5 μM) | EC50 [1] [nM] | log reduction at 5 µM [1] | log reduction at 50 µM [1] | EC50 [4] [nM] | log reduction at 5 µM [4] | log reduction at 50 µM [4] | other results |
| --- | --- | --- | --- | --- | --- | --- | --- | --- | --- | --- |
| Nc1nc2c(ncn2COCCO)c(=O)[nH]1 [ACV, Acyclovir, reference compound] | little effect | > 100000 |  |  |  |  |  |  |  | log reduction at 5 µM [1, 11]: 3.6; log reduction at 50 µM [1, 12]: 4.73; log reduction at 5 µM [4, 11]: 4.22; log reduction at 50 µM [4, 12]: 5.39 |
| O=C1Cc2ccccc2C(=O)N1O [Compound 1, 2-hydroxyisoquinoline-1,3(2H,4H)-dione] |  |  |  |  |  |  |  |  |  | inhibition of four genotype D RNAseH enzymes ([5]; compound at its IC50, FIGS. 7A & 7B): about 50%; inhibition of all 12 variant RNAseH enzymes, in words ([5]; compound at its IC50, genotypes B, C and D): Equivalent results; weighted CI value (combination index) with Lamivudine [6]: 0.70±0.1 |
| Cc1cc(O)c(=O)c(O)cc1-c1ccc(-c2ccccc2)cc1 [Compound 115] | efficiently inhibited | > 100000 | efficiently inhibited | 130 | 4.52 | 5.11 | 130 | 4.26 | 4.14 | Non-P450 turn-over [7]: No; half-life at 1 μM ([7]; read-out: t ½): 18 min; ER ([7]; extraction ratio): 0.76; CLint scaled at 1 μM ([7]; mouse, liver microsomes): 285 mL/min/kg; predicted hepatic clearance at 1 μM ([7]; mouse, liver microsomes, read-out: CL ′hep): 68 mL/min/kg; anti-HSV SAR group, in words [8]: highly inhibitory at much lower concentrations; also recorded: fully inhibitory at 0.5 μM |
| COC(=O)c1c(C)cc(O)c(=O)c(O)c1O [Compound 196] | efficiently inhibited | > 100000 | efficiently inhibited | 2570 | 4.05 | 4.56 | 100 | 4.17 | 3.99 | CC50 at 24 h [9]: 13000 nM; EC50 [10]: 6500 nM; log reduction at 1.5 µM ([4]; read-out: HSV-1 Log suppression 1.5 μM): 3.82 |
